Assay results: patent US20190375778A1, “ADENOSINE DERIVATIVES FOR USE IN THE TREATMENT OF CANCER” (NuCana plc, priority 2016, published 2019)
pIC50: −log10 of the molar value.

Tests used:
[1] = tested on: KG1a cell line; assay: Annexin V/propidium iodide cytotoxicity, KG1a unsorted; assay type: cell-based; details: for cytotoxic potency compared in words: KG1a, versus 8-chloroadenosine or other isomers (FIG. 1, FIG. 7); for LD50: Homo sapiens, KG-1a, Annexin V/propidium iodide, 72 hrs
Procedure: (§1) A further comparative analysis of the toxicity of compounds in the KG1a cell line over an extended dose range was carried out, and the relative effect assessed of the compounds on the leukaemic stem cell compartment within the KG1a cell line, across the entire dose range. Thus, experimental tests were performed on certain compounds of the present invention to assess their ability to target cancer stem cells in a leukaemic cell line. The acute myeloid leukaemia (AML) cell line, KG1a, was employed to assess the relative effect of compounds on the stem cell compartment. The KG1a cell line was selected because it manifests a minor stem cell-like compartment with a distinct immunophenotype (Lin^−/CD34^+/CD38^−/CD123^+).
(§2) Cells of the KG1a cell line were maintained in RPMI medium (Invitrogen, Paisley, UK) supplemented with 100 units/ml penicillin, 100 μg/ml streptomycin and 20% foetal calf serum. Cells were subsequently aliquoted (10^5 cells/100 μl) into 96-well plates and were incubated at 37° C. in a humidified 5% carbon dioxide atmosphere for 72 hrs in the presence of nucleoside analogues and their respective nucleotide analogues (known as ProTides) at concentrations that were experimentally determined for each series of compounds. In addition, control cultures were carried out to which no drug was added. Cells were subsequently harvested by centrifugation and were analyzed by flow cytometry using the Annexin V assay.
Cultured cells were harvested by centrifugation and then resuspended in 195 μl of calcium-rich buffer. Subsequently, 5 μl of Annexin V (Caltag Medsystems, Botolph Claydon, UK) was added to the cell suspension and cells were incubated in the dark for 10 mins prior to washing. Cells were finally resuspended in 190 μl of calcium-rich buffer together with 10 μl of propidium iodide. Apoptosis was assessed by dual-colour immunofluorescent flow cytometry as described previously. Subsequently LD50 values (the dose required to kill 50% of the cells in a culture) were calculated for each nucleoside analogue and ProTide.
(§3) The data obtained in these experiments were evaluated using one way ANOVA. All data was confirmed as Gaussian or a Gaussian approximation using the omnibus K2 test. LD50 values were calculated from the non-linear regression and line of best-fit analysis of the sigmoidal dose-response curves. All statistical analyses were performed using Graphpad Prism 6.0 software (Graphpad Software Inc., San Diego, Calif.).

[2] = tested on: KG1a leukaemic stem cell compartment (Lin−/CD34+/CD38−/CD123+); assay: Leukaemic stem cell compartment in KG1a; assay type: cell-based; details: for targeting of leukaemic/cancer stem cells in words: KG1a, compared to 8-chloroadenosine (FIG. 2, FIG. 8); for Change relative to control (%): % LSC compartment versus the series' control; for KG-1a (CD34+/CD38−/CD123+) % compartment: LSC as percentage of viable cells left, 72 hrs
Procedure: as §1, §2
KG1a cells were cultured for 72 hrs in the presence of a wide range of concentrations of each compound assayed. Cells were then harvested and labelled with a cocktail of anti-lineage antibodies (PE-cy7), anti-CD34 (FITC), anti-CD38 (PE) and anti-CD123 (PERCP cy5). The sub-population expressing a leukaemic stem cell (LSC) phenotype were subsequently identified and were expressed as a percentage of all viable cells left in the culture. The percentages of stem cells remaining were then plotted on a dose-response graph and the effects of the compounds were compared with 8-chloroadenosine.
as §3

[3] = tested on: A549; assay: MTT cytotoxicity assay, A549; assay type: cell-based; details: Homo sapiens, 96 h compound exposure, read-out: absolute IC50, A549
Text: (§4) Lovo: cell line derived from a metastatic site in a patient with colon cancer MCF7: human oestrogen sensitive mammary epithelial cell line PC3: human prostate cancer cell line A549: cancerous lung tissue derived cells L1210: lymphoblast cell line derived from a mouse with lymphocytic leukaemia FM3A: mammary carcinoma murine cells CEM: human T-lymphoblasts, derived from the blood of a patient with acute lymphoblastic leukaemia HeLa: epithelial cells from a patient with cervical adenocarcinoma
(§5) Anti-tumour evaluation in MCF7, LoVo, A549 and PC3 cell lines was performed by MTT assay. Compounds were prepared as 0.1-100 mM stock solutions dissolved in DMSO and stored at −20° C. Cells were seeded into 96-well microtitre plates at a density of 5×10^3 cells per well and allowed 24 hours to adhere. Decimal compound dilutions were prepared in medium immediately prior to each assay (final concentration 0.1-100 μM). Experimental medium was DMEM+10% FCS (PC3 and Lovo) or RPMI+10% heat inactivated FCS (A549 and MCF7). Following 96 h compound exposure at 37° C., 5% CO2, MTT reagent (Sigma Aldrich) was added to each well (final concentration 0.5 mg/ml). Incubation at 37° C. for 4 h allowed reduction of MTT by viable cells to an insoluble formazan product. MTT was removed and formazan solubilised by addition of 10% Triton X-100 in PBS. Absorbance was read on a Tecan Sunrise spectrophotometer at 540 nm as a measure of cell viability; thus inhibition relative to control was determined (IC50).

[4] = tested on: FM3A; assay: Cytotoxicity, FM3A; assay type: cell-based, murine; details: Mus musculus, read-out: absolute IC50, FM3A
Text: as §4

[5] = tested on: human cervix carcinoma HeLa cells; assay: Cell proliferation (Coulter count) assay, HeLa; assay type: cell-based; details: 120 h, cell count on day 5, read-out: absolute IC50, HeLa
Text: as §4
(§6) Murine leukemia L1210, human T-lymphocyte CEM, and human cervix carcinoma HeLa cells were obtained from the American Type Culture Collection (ATCC) (Rockville, Md.). All cells were maintained in Dulbecco's modified Eagle's medium (DMEM) (Invitrogen, Carlsbad, Calif.) with 10% fetal bovine serum (FBS) (Biochrom AG, Berlin, Germany), 10 mM Hepes, and 1 mM sodiumpyruvate (Invitrogen). Cells were grown at 37° C. in a humidified incubator with a gas phase of 5% CO2. Monolayer cells (HeLa and […]) were seeded in 96-well microtiter plates (Nunc, Roskilde, Denmark) at 10 000 cells/well. After 24 h, an equal volume of fresh medium containing the test compounds was added. On day 5, cells were trypsinized and counted in a Coulter counter (Analis, Suarlee, Belgium). Suspension cells (L1210, CEM) were seeded in 96-well microtiter plates (Nunc) at 60 000 cells/well in the presence of a given amount of the test compounds. The cells were allowed to proliferate for 48 h (L1210) or 72 h (CEM) and were then counted in a Coulter counter. The 50% inhibitory concentration (IC50) was defined as the compound concentration required to reduce cell proliferation by 50%. The cytostatic activity of the compounds was determined after 3 days, as outlined above.

[6] = tested on: PC3; assay: MTT cytotoxicity assay, PC3; assay type: cell-based; details: Homo sapiens, PC-3, 96 h compound exposure, read-out: absolute IC50, PC3
Text: as §4, §5

[7] = tested on: Murine leukemia L1210; assay: Cell proliferation (Coulter count) assay, L1210; assay type: cell-based; details: Mus musculus, 48 h, read-out: absolute IC50, L1210
Text: as §4, §6

[8] = tested on: Lovo; assay: MTT cytotoxicity assay, Lovo; assay type: cell-based; details: Homo sapiens, 96 h compound exposure, read-out: absolute IC50, Lovo
Text: as §4, §5

[9] = tested on: human T-lymphocyte CEM; assay: Cell proliferation (Coulter count) assay, CEM; assay type: cell-based; details: 72 h, read-out: absolute IC50, CEM
Text: as §4, §6

[10] = tested on: MCF7; assay: MTT cytotoxicity assay, MCF7; assay type: cell-based; details: Homo sapiens, 96 h compound exposure, read-out: absolute IC50, MCF7
Text: as §4, §5

[11] = tested on: RPMI-8226; assay: CellTiterGlo viability assay, RPMI-8226; assay type: cell-based, Human; details: Homo sapiens, RPMI-8226, 72 h, read-out: IC50 RPMI-8226
Procedure: (§7) In vitro viability assay were performed to assess the effects of compounds on cell viability in selected cell lines over ˜72 hrs using the CellTiterGlo (CTG, Promega-G7573) assay. The tests were performed in duplicates with treatment of compounds at 9 points, 3.16 folds titration in 96 well plates over ˜72 hrs. The compound starting concentrations were 198 μM. Cell viability assay using CellTiterGlo in 96-well plate were performed. Compound treatment 72 hrs, standard growth conditions, duplicates. Compounds were dissolved to 40 mM with thawed […]. Compounds were serially diluted at 3.16 fold in thawed DMSO, and warmed to 37° C. before being dissolved in media (2 μl+200 μl). After compounds were dissolved in media, media containing compounds were warmed to 37° C. in incubator and then compounds in media were added to cell plates (50 μl+50 μl) in duplicates. The compounds' final concentrations were from […] to 19.9 nM. All compound solubilities were checked and recorded again, then the plates were transferred to CO2 tissue culture incubator immediately and incubated for 3 days. DMSO final concentration is 0.5%.

[12] = tested on: K562; assay: CellTiterGlo viability assay, K562; assay type: cell-based; details: Homo sapiens, K562, 72 h, read-out: IC50 K562
Procedure: as §7

[13] = tested on: CCRFCEM; assay: CellTiterGlo viability assay, CCRFCEM; assay type: cell-based; details: Homo sapiens, CCRF-CEM, 72 h, read-out: IC50 CCRFCEM
Procedure: as §7

[14] = tested on: HL-60; assay: CellTiterGlo viability assay, HL-60; assay type: cell-based; details: Homo sapiens, HL-60, 72 h, read-out: IC50 HL-60
Procedure: as §7

[15] = tested on: HEL92.1.7; assay: CellTiterGlo viability assay, HEL92.1.7; assay type: cell-based; details: Homo sapiens, HEL 92.1.7, 72 h, read-out: IC50 HEL92.1.7
Procedure: as §7

[16] = tested on: MV4-11; assay: CellTiterGlo viability assay, MV4-11; assay type: cell-based; details: Homo sapiens, MV4-11, 72 h, read-out: IC50 MV4-11
Procedure: as §7

[17] = tested on: NCI-H929; assay: CellTiterGlo viability assay, NCI-H929; assay type: cell-based; details: Homo sapiens, NCI-H929, 72 h, read-out: IC50 NCI-H929
Procedure: as §7

[18] = tested on: KG-1; assay: CellTiterGlo viability assay, KG-1; assay type: cell-based; details: Homo sapiens, KG-1, 72 h, read-out: IC50 KG-1
Procedure: as §7

[19] = tested on: RL; assay: CellTiterGlo viability assay, RL; assay type: cell-based; details: Homo sapiens, RL, 72 h, read-out: IC50 RL
Procedure: as §7

SMILES | pIC50 [3] | pIC50 [4] | pIC50 [5] | pIC50 [6] | pIC50 [7] | pIC50 [8] | pIC50 [9] | pIC50 [10] | also measured
C[C@H](NP(=O)(OC[C@H]1O[C@@H](n2c(Cl)nc3c(N)ncnc32)[C@H](O)[C@@H]1O)Oc1cccc2ccccc12)C(=O)OCc1ccccc1 (single isomer, unassigned) [Isomer A of Compound D] |  |  |  |  |  |  |  |  | cytotoxic potency compared in words [1]: significantly more potent; targeting of leukaemic/cancer stem cells in words [2]: statistically significantly increased ability to target cancer stem cells
CC(C)OC(=O)[C@H](C)NP(=O)(OC[C@H]1O[C@@H](n2c(Cl)nc3c(N)ncnc32)C(O)C1O)Oc1ccccc1 (stereo partly drawn) [W, 5′-([(Isopropyloxy-L-alanin-N-yl)-phenyl]-phosphatyl) 8-chloroadenosine] | 4.00 to 4.82 | 4.00 to 4.82 | 4.00 to 4.82 | 5.30 to 7.00 | 4.00 to 4.82 | 5.30 to 7.00 | 4.00 to 4.82 | 4.00 to 4.82 | 
C[C@H](NP(=O)(OC[C@H]1O[C@@H](n2cnc3c(N)nc(Cl)nc32)[C@H](F)C1O)Oc1cccc2ccccc12)C(=O)OCc1ccccc1 (some centres unmarked) [Comparative compound 1] |  |  |  |  |  |  |  |  | LD50 [1]: 140 nM; Change relative to control (%) [2]: −0.2%; KG-1a (CD34+/CD38−/CD123+) % compartment [2]: 3.3%
COC(=O)[C@H](CCSC)NP(=O)(OC[C@H]1O[C@@H](n2c(Cl)nc3c(N)ncnc32)C(O)C1O)Oc1ccccc1 (stereo partly drawn) [Z, 5′-([(Methyloxy-L-methionine-N-yl)phenyl]-phosphatyl) 8-chloroadenosine] | < 4.00 | < 4.00 | 4.00 to 4.82 | 4.00 to 4.82 | 4.00 to 4.82 | 4.00 to 4.82 | 4.00 to 4.82 | 4.00 to 4.82 | 
C[C@H](NP(=O)(OC[C@H]1O[C@@H](n2c(Cl)nc3c(N)ncnc32)C(O)C1O)Oc1ccccc1)C(=O)OC1CCCCC1 (stereo partly drawn) [X, 5′-([(Cyclohexyloxy-L-alanin-N-yl)-phenyl]-phosphatyl) 8-chloroadenosine] | 4.00 to 4.82 |  |  | 5.30 to 7.00 |  | 5.30 to 7.00 |  | 5.30 to 7.00 | 
Nc1ncnc2c1nc(Cl)n2[C@@H]1O[C@H](COP(=O)(NCC(=O)OCc2ccccc2)Oc2ccccc2)[C@@H](O)[C@H]1O (single isomer, unassigned; isomer a) [Isomer A of Compound B] |  |  |  |  |  |  |  |  | cytotoxic potency compared in words [1]: significantly more potent; targeting of leukaemic/cancer stem cells in words [2]: statistically significantly increased ability to target cancer stem cells
C[C@@H](NP(=O)(OC[C@H]1O[C@@H](n2c(Cl)nc3c(N)ncnc32)C(O)C1O)Oc1ccccc1)C(=O)OCc1ccccc1 (stereo partly drawn) [T, 5′-([(Benzyloxy-D-alanin-N-yl)-phenyl]-phosphatyl) 8-chloroadenosine] | 4.00 to 4.82 | 4.00 to 4.82 | 4.82 to 5.30 | 5.30 to 7.00 | 4.00 to 4.82 | 5.30 to 7.00 | 4.00 to 4.82 | 4.00 to 4.82 | 
C[C@H](NP(=O)(OC[C@H]1O[C@@H](n2cnc3c(N)nc(Cl)nc32)CC1O)Oc1cccc2ccccc12)C(=O)OCc1ccccc1 (some centres unmarked) [Comparative compound 2] |  |  |  |  |  |  |  |  | LD50 [1]: 820 nM; Change relative to control (%) [2]: −0.5%; KG-1a (CD34+/CD38−/CD123+) % compartment [2]: 3.5%
CCCCCOC(=O)[C@H](Cc1ccccc1)NP(=O)(OC[C@H]1O[C@@H](n2c(Cl)nc3c(N)ncnc32)C(O)C1O)Oc1cccc2ccccc12 (stereo partly drawn) [Q, 5′-([(Pent-1-yloxy-L-phenylalanin-N-yl)-naphth-1-yl]-phosphatyl) 8-chloroadenosine] |  |  | 5.30 to 7.00 |  | 4.82 to 5.30 |  | 5.30 to 7.00 |  | pIC50 [11]: 5.30 to 7.00; pIC50 [12]: 5.30 to 7.00; pIC50 [13]: 4.82 to 5.30; pIC50 [14]: 4.82 to 5.30; pIC50 [15]: 5.30 to 7.00; pIC50 [16]: 5.30 to 7.00; pIC50 [17]: 4.82 to 5.30; pIC50 [18]: 4.82 to 5.30; pIC50 [19]: 4.82 to 5.30
